Source: BindingDB's records for doi:10.1016/s0960-894x(00)00026-3 (Universit&#224, 2000)

Assay: Inhibition of Clostridium histolyticum collagenase using a linear regression program

Compound | Ki [µM]
CC(C(=O)O)N(Cc1ccc([N+](=O)[O-])cc1)S(=O)(=O)C(F)(F)C(F)(F)C(F)(F)C(F)(F)F (stereo unspecified) [2-[(4-Nitro-benzyl)-(nonafluorobutane-1-sulfonyl)-amino]-propionic acid] | 2.3
COc1ccc(S(=O)(=O)N(Cc2ccc([N+](=O)[O-])cc2)C(C)C(=O)NO)cc1NC(=O)OC(C)(C)C (stereo unspecified) [{5-[(1-Hydroxycarbamoyl-ethyl)-(4-nitro-benzyl)-sulfamoyl]-2-methoxy-phenyl}-carbamic acid tert-butyl ester] | 8
CC(C(=O)O)N(Cc1ccc([N+](=O)[O-])cc1)S(=O)(=O)c1cccc2ccccc12 (stereo unspecified) [2-[(Naphthalene-1-sulfonyl)-(4-nitro-benzyl)-amino]-propionic acid] | 1.2
CC(C(=O)NO)N(Cc1ccc([N+](=O)[O-])cc1)S(=O)(=O)c1cccc([N+](=O)[O-])c1 (stereo unspecified) [N-Hydroxy-2-[(3-nitro-benzenesulfonyl)-(4-nitro-benzyl)-amino]-propionamide] | 12
CC(=O)c1ccc(S(=O)(=O)N(Cc2ccc([N+](=O)[O-])cc2)C(C)C(=O)O)cc1 (stereo unspecified) [2-[(4-Acetyl-benzenesulfonyl)-(4-nitro-benzyl)-amino]-propionic acid] | 2.1
CC(C(=O)NO)N(Cc1ccc([N+](=O)[O-])cc1)S(=O)(=O)c1ccc(F)cc1 (stereo unspecified) [2-[(4-Fluoro-benzenesulfonyl)-(4-nitro-benzyl)-amino]-N-hydroxy-propionamide] | 35
CC(C(=O)O)N(Cc1ccc([N+](=O)[O-])cc1)S(=O)(=O)c1cccc2cccnc12 (stereo unspecified) [2-[(4-Nitro-benzyl)-(quinoline-8-sulfonyl)-amino]-propionic acid] | 1.2
CC(C(=O)O)N(Cc1ccc([N+](=O)[O-])cc1)S(=O)(=O)c1cccs1 (stereo unspecified) [2-[(4-Nitro-benzyl)-(thiophene-2-sulfonyl)-amino]-propionic acid] | 2.1
COc1ccc(S(=O)(=O)N(Cc2ccc([N+](=O)[O-])cc2)C(C)C(=O)NO)cc1 (stereo unspecified) [N-Hydroxy-2-[(4-methoxy-benzenesulfonyl)-(4-nitro-benzyl)-amino]-propionamide] | 21
CC(C(=O)NO)N(Cc1ccc([N+](=O)[O-])cc1)S(=O)(=O)c1cccc(NC(=O)OC(C)(C)C)c1 (stereo unspecified) [{3-[(1-Hydroxycarbamoyl-ethyl)-(4-nitro-benzyl)-sulfamoyl]-phenyl}-carbamic acid tert-butyl ester] | 8
CC(C(=O)NO)N(Cc1ccc([N+](=O)[O-])cc1)S(=O)(=O)c1ccc(Cl)cc1 (stereo unspecified) [2-[(4-Chloro-benzenesulfonyl)-(4-nitro-benzyl)-amino]-N-hydroxy-propionamide] | 32
CC(C(=O)NO)N(Cc1ccc([N+](=O)[O-])cc1)S(=O)(=O)C(F)(F)C(F)(F)C(F)(F)C(F)(F)C(F)(F)C(F)(F)C(F)(F)C(F)(F)F (stereo unspecified) [2-[(Heptadecafluorooctane-1-sulfonyl)-(4-nitro-benzyl)-amino]-N-hydroxy-propionamide] | 7
CC(C(=O)O)N(Cc1ccc([N+](=O)[O-])cc1)Sc1ccc([N+](=O)[O-])cc1[N+](=O)[O-] (stereo unspecified) [2-[(2,4-Dinitro-phenylsulfanyl)-(4-nitro-benzyl)-amino]-propionic acid] | 5.1
CC(C(=O)O)N(Cc1ccc([N+](=O)[O-])cc1)Sc1ccc([N+](=O)[O-])cc1 (stereo unspecified) [2-[(4-Nitro-benzyl)-(4-nitro-phenylsulfanyl)-amino]-propionic acid] | 5.5
CC(C(=O)NO)N(Cc1ccc([N+](=O)[O-])cc1)S(=O)(=O)c1ccc(Br)cc1 (stereo unspecified) [2-[(4-Bromo-benzenesulfonyl)-(4-nitro-benzyl)-amino]-N-hydroxy-propionamide] | 30
CC(C(=O)NO)N(Cc1ccc([N+](=O)[O-])cc1)S(=O)(=O)C(F)(F)C(F)(F)C(F)(F)C(F)(F)F (stereo unspecified) [2-(N-(4-nitrobenzyl)-2,2,12,12,15,15,18,18,18-nonafluorobutan-2-ylsulfonamido)-N-hydroxypropanamide] | 11
